# Measurements as given in patent US11319279B2, “Antimicrobial compound and use thereof” (priority 2014, dated 2022).
# Read-outs that look alike come from different tables or passages of the source.
# Columns and labels:
# [1] = test system: Enterococcus faecalis KTCT 5191; experiment: MIC by broth microdilution; settings: for MIC: Enterococcus faecalis, KCTC5191, 20 h
# Procedure: (§1) A test microorganism was cultured in Mueller Hinton broth (MHB) and the antimicrobial activity was measured by the broth microdilution method. […] The compound was diluted in dimethylsulfoxide (DMSO) and the experiment was performed by adjusting the DMSO concentration to a 1/100 level. After culturing for 20 hours, the OD value was measured at 650 nm and the growth of the microorganism was examined.
# [2] = test system: E. coli KTCT 1682; experiment: MIC by broth microdilution; format: cell-based; settings: Escherichia coli, KCTC1682; E. coli KTCT 1682 (KCTC 1682 in Table 4); MHB, 20 hours
# [3] = test system: MRSA CCARM 3167; experiment: MIC by broth microdilution; format: cell-based, methicillin-resistant Staphylococcus aureus; settings: for MIC: Staphylococcus aureus, MRSA CCARM 3167, MHB, 20 hours
# [4] = test system: Klebsiella pneumoniae KCTC 22057; experiment: MIC by broth microdilution; format: cell-based; settings: KCTC22057, MHB, 20 hours
# [5] = test system: Pseudomonas aeruginosa KTCT 2004; experiment: MIC by broth microdilution; settings: KCTC2004, 20 h
# Procedure: as §1
# [6] = test system: Streptococcus pneumoniae KTCT 5412; experiment: MIC by broth microdilution; settings: KCTC5412, 20 h
# Procedure: as §1
# [7] = test system: E. coli CCARM 1356; experiment: MIC by broth microdilution; format: cell-based, Escherichia coli; settings: for MIC: Escherichia coli, CCARM1356, E. coli CCARM 1356, MHB, 20 hours
# [8] = test system: Pseudomonas aeruginosa KTCT 2742; experiment: MIC by broth microdilution; format: cell-based
# [9] = test system: Enterococcus faecalis KTCT 3511; experiment: MIC by broth microdilution; format: cell-based
# [10] = test system: MRSA CCARM 3506; experiment: MIC by broth microdilution; format: cell-based, methicillin-resistant Staphylococcus aureus; settings: Staphylococcus aureus, MHB, 20 hours
# [11] = test system: Acinetobacter calcoaceticus KTCT 2357; experiment: MIC by broth microdilution; format: cell-based
# [12] = test system: Acinetobacter baumannii KCTC 2508; experiment: MIC by broth microdilution; format: cell-based; settings: KCTC2508, MHB, 20 hours
# [13] = test system: QRSA CCARM 3505; experiment: MIC by broth microdilution; format: cell-based, quinolone-resistant Staphylococcus aureus; settings: Staphylococcus aureus, CCARM3505, MHB, 20 hours
# [14] = test system: Escherichia coli; experiment: MIC by broth microdilution, summary over E. coli strains; format: cell-based; settings: range over E. coli strains of Table 2
# [15] = test system: Bacillus subtilis KCTC 1021; experiment: MIC by broth microdilution; format: cell-based; settings: KCTC1021, MHB, 20 hours
# [16] = test system: Klebsiella aerogenes and Pseudomonas aeruginosa; experiment: MIC by broth microdilution, summary over Klebsiella and Pseudomonas strains; format: cell-based; settings: range over strains of Table 2
# [17] = test system: VISA; experiment: Antimicrobial activity against VISA; format: cell-based, vancomycin intermediate-resistant S. aureus; settings: statement in words, refers to Example 5
# [18] = test system: Klebsiella aerogenes KTCT 2619; experiment: MIC by broth microdilution; format: cell-based; settings: KTCT2619, MHB, 20 hours
# [19] = test system: Staphylococcus aureus 503; experiment: MIC by broth microdilution; format: cell-based; settings: MHB, 20 hours
# [20] = test system: MRSA (CCARM3167, CCARM3506) and QRSA (CCARM 3505, CCARM 3519); experiment: MIC by broth microdilution, summary over MRSA and QRSA strains; format: cell-based; settings: Staphylococcus aureus; range over MRSA CCARM3167, CCARM3506 and QRSA CCARM 3505, CCARM 3519; read-out: MICs in MRSA and QRSA
# [21] = test system: VRE; experiment: Antimicrobial activity against VRE; format: cell-based, vancomycin resistant enterococcus; settings: statement in words, refers to Example 5
# [22] = test system: Staphylococcus aureus 209; experiment: MIC by broth microdilution; format: cell-based; settings: MHB, 20 hours
# [23] = test system: Staphylococcus epidermidis KTCT 3958; experiment: MIC by broth microdilution; format: cell-based
# [24] = test system: Salmonella typhimurium KTCT 1926; experiment: MIC by broth microdilution; format: cell-based; settings: Salmonella enterica, MHB, 20 hours
# [25] = test system: QRSA CCARM 3519; experiment: MIC by broth microdilution; format: cell-based, quinolone-resistant Staphylococcus aureus; settings: Staphylococcus aureus, CCARM3519, MHB, 20 hours
# [26] = test system: S. aureus; experiment: MIC by broth microdilution, summary over S. aureus strains; format: cell-based; settings: Staphylococcus aureus; range over S. aureus strains of Table 2
# [27] = test system: Staphylococcus aureus RN 4220; experiment: MIC by broth microdilution; format: cell-based; settings: RN4220, 20 h
# [28] = test system: Bacillus subtilis KTCT 1661; experiment: MIC by broth microdilution; format: cell-based
Compound,MIC [1] [µg/mL],MIC [2] [µg/mL],MIC [3] [µg/mL],MIC [4] [µg/mL],MIC [5] [µg/mL],MIC [6] [µg/mL],MIC [7] [µg/mL],MIC [12] [µg/mL],MIC [27] [µg/mL],other results
"O=C(O)c1cn(C2CC2)c2cc(N3CCNCC3)c(F)cc2c1=O [Ciprofloxacin, reference compound]",0.5,0.003,2,0.006,0.06,0.5,64,–,–,–
COC(C(N)=O)C(NC(=O)c1ccc(NC(=O)c2ccc([N+](=O)[O-])cc2)cc1)C(=O)Nc1ccc(C(=O)Nc2ccc(C(=O)Nc3ccc(C(=O)O)cc3OC(C)C)c(O)c2OC(C)C)cc1 (stereo not shown) [Coralmycin A],0.125,0.5,0.125,8,8,2,1,0.25,0.063,"MIC ([8]; KTCT2742, Pseudomonas aeruginosa KTCT 2742, MHB, 20 hours, read-out: MIC): 32 µg/mL; MIC ([9]; KTCT3511, Enterococcus faecalis KTCT 3511, MHB, 20 hours, read-out: MIC): 0.125 µg/mL; MIC [10]: 0.25 µg/mL; MIC ([11]; KTCT2357, Acinetobacter calcoaceticus KTCT 2357, MHB, 20 hours, read-out: MIC): 0.25 µg/mL; MIC [13]: 1 µg/mL; MIC [14]: 0.5 to 1 µg/mL; MIC [15]: 0.063 µg/mL; MIC [16]: 8 to 32 µg/mL; antimicrobial activity against VISA [17]: confirmed; MIC [18]: 8 µg/mL; MIC [19]: 1 µg/mL; MIC [20]: 0.1 to 1 µg/mL; antimicrobial activity against VRE [21]: confirmed; MIC [22]: 0.125 µg/mL; MIC ([23]; KTCT3958, Staphylococcus epidermidis KTCT 3958, MHB, 20 hours, read-out: MIC): 0.125 µg/mL; MIC [24]: 0.063 µg/mL; MIC [25]: 1 µg/mL; MIC [26]: 0.06 to 1 µg/mL; MIC ([28]; KTCT1661, Bacillus subtilis KTCT 1661, MHB, 20 hours, read-out: MIC): 0.125 µg/mL"
COC(C(N)=O)C(NC(=O)c1ccc(NC(=O)c2ccc([N+](=O)[O-])cc2)cc1)C(=O)Nc1ccc(C(=O)Nc2ccc(C(=O)Nc3ccc(C(=O)O)c(O)c3OC(C)C)c(O)c2OC(C)C)cc1 (stereo not shown) [Coralmycin B],0.03,0.125,0.015,2,4,0.25,0.125,0.125,0.015,higher antimicrobial activity compared to ciprofloxacin ([1]; in Enterococcus faecalis): at least 16 fold; higher antimicrobial activity compared to ciprofloxacin ([3]; in MRSA): at least 133 fold; higher antimicrobial activity compared to ciprofloxacin ([7]; in Escherichia coli): at least 426 fold
"Oc1cc(Cl)ccc1Oc1ccc(Cl)cc1Cl [Triclosan, reference compound]",> 64,–,–,–,> 64,64,–,–,–,"MIC ([8]; Pseudomonas aeruginosa, KTCT2742, 20 h): > 64 µg/mL; MIC ([9]; Enterococcus faecalis, KTCT3511, 20 h): > 64 µg/mL; MIC ([11]; Acinetobacter calcoaceticus, KTCT2357, 20 h): > 0.5 µg/mL; MIC ([23]; Staphylococcus epidermidis, KTCT3958, 20 h): 0.25 µg/mL; MIC ([28]; Bacillus subtilis, KTCT1661, 20 h): 2 µg/mL"
